Data: EP0288563B1, “CYCLIC AMINE DERIVATIVES” (Eisai Co., Ltd., priority 1986, dated 1988)
Counter-ions that a name gives are not always drawn.

Experiments:
[1] = tested on: nerve cells in the CAI region of the hippocampus; assay: Effect of protecting cells from disorder after ischemia (nerve cell count in hippocampus); format: in vivo, Mongolian gerbils; details: counted after one week, normal group 287 ± 6, control group 21 ± 10
Experimental: Carotid arteries on both sides of Mongolian gerbils were blocked to realize cerebral ischemia for 5 min. As a result, the nerve cells in the CAI region of the hippocampus disappeared extensively [Karino, T.: Brain Res., 239, 57 to 69 (1982)].
The compound of the present invention was administered orally to them, while a 5% acacia suspension was administered to the control group. After one hour, the ischemia was realized for 5 min. After one week, the animal was perfused and fixed with 4% neutral formalin transcardially. The treated sample was embedded in paraffin and cut to obtain slices having a thickness of 3 µm. The slices were dyed with hematoxylin-eosin and the number of the nerve cells in the CAI region of the hippocampus of each slice was counted.
The nerve cell density in the CAI region of the hippocampus was 287/mm in the normal (pseudo-operation) group and that of the control group was as small as 21/mm. Namely, a serious disappearance of the cell was caused by the 5-min ischemia. […]

ischemic brain = assay: Effect of protecting ischemic brain (survival time after ligation of both carotid arteries); format: in vivo, ICR mice; details: for Average survival time (min) (average ± S.E.): maximum 6 h, control group 149.9 ± 25.8; for %: survival time relative to control group (100)
Experimental: Carotid arteries of both sides of ICR mice (6 to 8 weeks old) were exposed under halothane anesthesia and ligated. The mice thus treated had stroke symptoms such as jumping, rolling and convulsion and almost all of them died within 24 h.
The compound of the present invention was administered orally to the mice one hour before the ligation and the survival time (maximum: 6 h) was examined as an index of the effect of protecting eschemic brain. In this experiment, the compound was used in the form of a 5% suspension in acacia and a 5% acacia solution was given to the control group.

[2] = 10 mg/kg p.o. one hour before 5-min ischemia
[3] = 30 mg/kg p.o. one hour before 5-min ischemia
[4] = 10 mg/kg p.o. one hour before ligation
[5] = 30 mg/kg p.o. one hour before ligation
[6] = 3 mg/kg p.o. one hour before ligation

Structure (SMILES)	Nerve cell density (number/mm) [1, 2] [number/mm]	Nerve cell density (number/mm) [1, 3] [number/mm]	Average survival time (min) (average ± S.E.) (ischemic brain; [4])	Average survival time (min) (average ± S.E.) (ischemic brain; [5])	% (ischemic brain; 10 mg/kg p.o.) [%]	% (ischemic brain; 30 mg/kg p.o.) [%]	Nerve cell density (number/mm) ([1]; 3 mg/kg p.o. one hour before 5-min ischemia)	Average survival time (min) (average ± S.E.) (ischemic brain; [6])	% (ischemic brain; 3 mg/kg p.o.) [%]
c1ccc(CC2CCN(CCc3ccc4ccccc4c3)CC2)cc1 [Example 73]	69 ± 21	49 ± 8	150.4 ± 57.6	275.2 ± 58.2	100	184			
O=C(CN1CCC(C(=O)c2ccc(F)cc2)CC1)c1ccc2ccccc2c1 [Example 12, 2-[4-p-Fluorobenzoyl)piperidinyl]-2'-acetonaphthone hydrochloride]	75 ± 32	83 ± 32	181.4 ± 43.6	191.1 ± 54.3	121	128	62 ± 26	213.7 ± 52.3	143
O=C(CN1CCC(=Cc2ccc(F)cc2)CC1)c1ccc2ccccc2c1 [Example 74]		62 ± 5	205.1 ± 43.6	194.2 ± 49.7	137	130		143.3 ± 39.6	96
